Results from US10947285B2, “Compounds, compositions and uses thereof for improvement of bone disorders” (Amolyt Pharma, priority 2017, dated 2021).
Values belong to the compound of their own block, whether it stands above or below them. Residues, ends and D or L forms follow the SMILES beside them. No end group written: not given here. *: point of attachment. Stearoyl = CCCCCCCCCCCCCCCCCC(=O)*

Key:
[1] = Pharmacokinetic in Göttingen minipigs after intravenous and subcutaneous injection; type: in vivo; conditions: 0.5 μmol/kg
Description: The peptide was reconstituted in saline (0.9% NaCl). Three Göttingen minipigs (approximately 8-10 months of age) were used per group. Intravenous doses were administered into an ear vein at the dose of 0.5 μmol net peptide/kg. Subcutaneous doses were administered into the right flank of each animal, also at the dose of 0.5 μmol net peptide/kg. Following dosing, serial whole blood samples (ca. 0.25 mL) were collected from a jugular vein into K2EDTA treated containers. Following each blood sample collection, samples were placed into a cooling block at 4° C. Samples were collected prior to dosing then at 5 and 30 minutes then 1, 2, 4, 8, 25, 48, 72 and 96 hours post dose for intravenous injection and at 15 and 30 minutes then 1, 2, 4, 8, 25, 48, 72 and 96 hours post dose for subcutaneous injection.
Blood samples were centrifuged at 10000×g for 2 minutes at 4° C. and resultant plasma aspirated off into clean fully, labelled tubes. Plasma samples were snap frozen following aspiration then stored at −80° C. Peptide extraction and analysis were performed as described in Example 9. The limit of quantification of this method is 0.0015 nmol/mL. All values below this limit of quantification are considered as zero.

[2] = test system: ovariectomized (OVX) rats; test: Bone biomechanical properties in ovariectomized rat (lumbar vertebrae compression, femoral neck cantilever bending); type: in vivo, Sprague-Dawley rats; conditions: 3.2 mg/kg BID s.c., 6 weeks, vs OVX vehicle
Description: (§1) Effects on bone of three doses of HBD1 (3-11) with stearic acid at the N-terminus (C18:0) analog were tested in vivo in ovariectomized (OVX) rats, a recognized model for human osteoporosis, in particular postmenopausal osteoporosis. Each group included ten female Sprague-Dawley rats that were four months of age at the beginning of the in-life phase of the study. Treatment started six weeks after OVX surgery and lasted for six additional weeks. Groups were randomized before surgery according to body weight and tibial metaphysis Bone Mineral Density (BMD) as measured by peripheral quantitative computed tomography (pQCT) from Norland Stratec XCT Research SA equipment (Norland Stratec Medizintechnik, Birkenfeld, Germany).
(§2) The peptide was reconstituted in saline solution (0.9% NaCl) and administered subcutaneously twice a day at the doses of 0.8 mg/kg (low), 1.6 mg/kg (med) or 3.2 mg/kg (high) in a volume of 1 mL/kg. The control group was administered twice a day with saline by s.c. administration. Rats were weighed once a week and the volume of dosing solution administered was adjusted accordingly.
Bone biomechanical properties were determined by compression test using Instron 3343 biomechanical testing system (Instron, Norwood, Mass., USA). […]

[3] = test system: ovariectomized (OVX) rats; test: Bone formation in ovariectomized rat, μCT of proximal tibia; type: in vivo, Sprague-Dawley rats; conditions: 6 weeks
Description: as §1, §2
High-resolution micro-computed tomography (μCT) measurements using Sky Scan 1072 or 1172 High Resolution Scanner (Bruker microCT, Kontich, Belgium) were performed ex vivo in right proximal tibia at the end of the treatment period for measuring bone volume, bone cross-sectional dimensions and bone microarchitecture. FIGS. 5A, 5B and 5C show the percent increase from OVX animals HBD1 (3-11) with stearic acid at the N-terminus (C18:0) groups for following selected parameters: Bone Volume Fraction (BV/TV; %), Trabecular number (Tb.N; mm^−1) and Connectivity Density (Conn.D; mm^−3).

[4] = Pharmacokinetic of HBD1 fragments in male Sprague Dawley rats after intravenous and subcutaneous injection; type: in vivo; conditions: 1 μmol net peptide/kg; for quantifiable exposure after administration by either dose route: iv and sc
Description: The peptides were reconstituted in saline (0.9% NaCl). Three male Sprague Dawley rats were used per group. Intravenous doses were administered into a lateral tail vein at the dose of 1 μmol net peptide/kg. Subcutaneous doses were administered into the right flank of each animal, also at the dose of 1 μmol net peptide/kg. Following dosing, serial whole blood samples (ca. 0.25 mL) were collected from a lateral tail vein into K2EDTA treated containers. Following each blood sample collection, samples were placed into a cooling block at 4° C. Samples were collected prior to dosing then at 2, 5, 15 and 30 minutes then 1, 2, 4, 6 and 8 and 24 hours post dose for intravenous injection and at 15 and 30 minutes then 1, 2, 4, 6, 8 and 24 hours post dose for subcutaneous injection.
Blood samples were centrifuged at 10000×g for 2 minutes at 4° C. and resultant plasma aspirated off into clean fully, labelled tubes. Plasma samples were snap frozen following aspiration then stored at −80° C. Peptides were extracted and analyzed as described in Example 9. The limits of quantification of these methods were 0.001 nmol/mL for cyclic HBD1 (3-11) and HBD1 (3-11) and 0.003 nmol/mL for HBD1 (1-13). All values below these limits of quantification were considered as zero.

[5] = Stability of HBD1 fragments in human plasma; type: in vitro ADME; conditions: 24 and 48 hours incubation at 37° C.
Description: The peptides were spiked at 1 μg/mL (peptide backbone) into pre-warmed human K2EDTA plasma (at 37° C.) and incubated for up to 48 hours. Aliquots of plasma were extracted at specific time points (0, 24 and 48 hours post spike). Extraction was performed with acetonitrile:water (75:25, v/v) for HBD1 (1-13), HBD1 (1-13) with palmitic acid at the N-terminus (C16:0), HBD1 (3-11) with palmitic acid at the N-terminus (C16:0)) and HBD1 (3-11) with stearic acid at the N-terminus (C18:0) or with acetonitrile:water:formic acid (75:25:0.1, v/v/v) for HBD1 (3-11) and cyclic HBD1 (3-11). The peptides were analyzed using developed LC (C18 reverse phase column)—positive ion electrospray MS/MS methods specific to each peptide. The peak area at each time point was expressed as a percentage of the value obtained for the t=0 minutes time point.

[6] = OVX rats, s.c. twice a day 0.8, 1.6 or 3.2 mg/kg, vs OVX vehicle, dose-dependent

duration of exposure after subcutaneous administration [1]: up to 25 hours
Compound: CCCCCCCCCCCCCCCCCC(=O)N[C@@H](Cc1c[nH]cn1)C(=O)N[C@@H](CC(C)C)C(=O)NCC(=O)N[C@@H](CC(C)C)C(=O)N[C@@H](CCC(=O)O)C(=O)N[C@@H](CCC(=O)O)C(=O)N1CCC[C@H]1C(=O)N[C@@H](CCCCN)C(=O)N[C@@H](CCCCN)C(=O)O [SEQ ID NO: 73, C18:0-HLGLEEPKK] (Stearoyl-HLGLEEPKK-OH; C-terminus assumed)
bone strength (biomechanical properties of lumbar vertebrae and femoral neck) [2]: increased bone strength | effect on bone in ovariectomized rat ([3]; OVX Sprague-Dawley rats, s.c. twice a day, 0.8, 1.6 or 3.2 mg/kg): has anabolic effect on bone | connectivity density (Conn.D) at tibial metaphysis [3, 6]: increased | percent bone volume fraction (BV/TV) at tibial metaphysis [3, 6]: increased | trabecular number (Tb.N) at tibial metaphysis [3, 6]: increased

Tlast (last time point with detectable peptide) ([4]; iv, listed as Cyclic HBD1 (3-11)): 8 h | Tlast (last time point with detectable peptide) ([4]; sc, listed as Cyclic HBD1 (3-11)): 4 h | Tlast (last time point with detectable peptide) ([4]; sc, listed as cyclic HBD1 (3-11)): ≤ 4 h
Compound: CC(C)C[C@@H]1NC(=O)CNC(=O)[C@H](CC(C)C)NC(=O)[C@H](Cc2c[nH]cn2)NC(=O)[C@H](CCCCN)NC(=O)[C@H](CCCCN)NC(=O)[C@@H]2CCCN2C(=O)[C@H](CCC(=O)O)NC(=O)[C@H](CCC(=O)O)NC1=O [SEQ ID NO: 77, Cyclic (HLGLEEPKK)] (cyclo(EEPKKHLGL))

quantifiable exposure after administration by either dose route [4]: no quantifiable exposure | stability in human plasma (in words) [5]: very stable in human plasma
Compound: HLGLEEPKK [SEQ ID NO: 10, HLGLEEPKK]

quantifiable exposure after administration by either dose route [4]: no quantifiable exposure | stability in human plasma (in words) [5]: markedly degraded in human plasma
Compound: KHHLGLEEPKKLR [SEQ ID NO: 1, KHHLGLEEPKKLR, reference compound]
